Test results as given in patent publication US9433624B2, “Methods and compositions for the treatment of metabolic disorders” (BIOMARIN PHARMACEUTICAL INC., priority 2003, dated 2016).
Where two headings read alike, the source gives them in different places.

Assays:
[1] = test system: humans with elevated blood levels of phenylalanine (>600 μmol/L); test: Open label single ascending oral dose study of 6R-BH4, blood Phe before and 24 hours after each dose; type: in vivo
Source text: (§1) Criteria for inclusion in the study included (1) baseline blood Phe levels of >600 μmol/L, (2) age of at least 8 years. Criteria for exclusion from the study included (1) pregnancy or breastfeeding, (2) concurrent diseases or conditions that require medication or treatment, (3) concurrent treatment with any drug known to inhibit folate synthesis, and (4) treatment with any investigational drug within 30 days. Each of the patients also was identified as having a mutation in the phenylalanine hydroxylase (PAH) gene. Study subjects underwent baseline assessments, including medical history with assessment of phenylketonuria (PKU) or hyperphenylalaninemia (HPA) related signs and symptoms, physical examinations, vital signs, serum amino acid (i.e., phenylalanine, tyrosine, and tryptophan) blood levels, and routine laboratory tests (chemistry, hematology, and urinalysis) before inclusion in the study.
Within a maximum of 4 weeks following the completion of baseline assessments, eligible subjects began the first stage of the study. Single ascending doses of 10 mg/kg, 20 mg/kg and 40 mg/kg of 6R-BH4 were administered orally, with a washout period of at least 7 days between each dose, and subjects were monitored 24 hours after each dose. Subjects underwent a safety assessment and blood amino acid (i.e, phenylalanine, tyrosine, and tryptophan) level measurements before and 24 hours after each 6R-BH4 dose. Blood pressure was measured 30 minutes and 1 hour after each dose. Safety assessments included physical examinations, vital signs, serial assessment of PKU or HPA related signs and symptoms, recording of adverse events, and monitoring of changes in laboratory parameters (chemistry, hematology, and urinalysis). Subjects were instructed to continue their usual diet without any modification, and to record daily intake of food and beverages throughout the study.

[2] = test system: humans with elevated blood levels of phenylalanine (>600 μmol/L); test: Multiple dose study (7-day loading test), 6R-BH4 daily for 7 days, blood Phe and tyrosine; type: in vivo
Source text: as §1
After the first stage of the study was completed, subjects entered the second stage of the study, during which they received 10 mg/kg of 6R-BH4 daily in an oral dosage form, for a total of 7 days. After a washout period of at least 7 days, each subject received 20 mg/kg of 6R-BH4 daily for a total of 7 days. During the second stage of the study, subjects were monitored before dosing, at 24 and 72 hours after first dose, and on the 7th day of dosing at each of the two dose levels. Monitoring included a safety assessment as described above, measurement of serum blood amino acid (i.e, phenylalanine, tyrosine, and tryptophan) levels and evaluation of phenylalanine and tyrosine oral intake. Subjects were instructed to continue their usual diet without any modification, and to record daily intake of food and beverages throughout the study.
Of those 14 patients, 10 (71%) responded favorably to 10 mg/kg/day. […] The individual blood Phe responses to multiple doses of 10 mg/kg BH4 are shown in 11 adults (FIG. 17) and 9 children (FIG. 19). The individual blood Phe responses to multiple doses of 20 mg/kg BH4 are shown in 11 adults (FIG. 18) and in 9 children (FIG. 20).

[3] = room temperature; cited from earlier work
[4] = Schircks dihydrochloride salt, oral tablets; cited from earlier work
[5] = Storage stability of the polymorph form of BH4×2HCl, quality checked by HPLC; type: physicochemical; settings: minigrip bag, 40° C., 75% relative humidity
Procedure: The polymorph forms of BH4 described in the Moser Applications are a very stable crystalline form of the drug. The polymorph form can be easily filtered off, dried and ground to particle sizes desired for pharmaceutical formulations. These outstanding properties renders this polymorph form especially feasible for pharmaceutical application. The stability of the polymorph form of BH4 was determined after the BH4×2HCl (the polymorph form) had been stored for 8 months in a minigrip bag at 40° C. and 75% relative humidity. Quality was checked in different intervals throughout the 8 month period by HPLC.

[6] = for hygroscopicity / water adsorbed (content): dihydrochloride; for water adsorbed (content): released on heating at 10° C./minute

Question: For `C[C@H](O)[C@H](O)[C@H]1CNc2nc(N)[nH]c(=O)c2N1` [6R-BH4, (6R)-5,6,7,8-tetrahydrobiopterin], which “blood Phe decline from baseline” value ([1]; single oral dose 10 mg/kg) is on record?
Answer: Its value is 10%±0.26%.

Question: And the “blood Phe mean decline from baseline” value ([1]; single oral dose 20 mg/kg)?
Answer: The value was 17%±0.28%.

Question: What about the “blood Phe mean decline from baseline” value ([1]; single oral dose 40 mg/kg) of the same molecule?
Answer: Its value is 27%±0.25%.

Question: What about the “responders to 20 mg/kg who also responded to the lower dose (30% or greater reduction in blood Phe)” value ([2]; 10 mg/kg/day, 10 of the 14 responders) of the same molecule?
Answer: The value was 71%.

Question: What about the “patients with sustained decrease in blood Phe concentration (responsive = decline of 30%)” value ([2]; 20 mg/kg daily, 14/20 patients) of the same molecule?
Answer: Its value is 70 % of the patients.

Question: And the “increase in blood tyrosine from baseline, some patients” value ([2]; 10 and 20 mg/kg daily, some but not all patients)?
Answer: Its value is over 80%.

Question: And the shelf-life [3]?
Answer: The shelf-life was under 8 h.

Question: And the half-life [4]?
Answer: The half-life was “approximately 3.5 hours”.

Question: Which results are given for `C[C@H](O)[C@H](O)[C@H]1CNc2nc(N)[nH]c(=O)c2N1.Cl.Cl` [BH4×2HCl, (6R)-L-erythro-tetrahydrobiopterin dihydrochloride]?
Answer: HPLC [% area] ([5]; 0 months (at the beginning)): 98.4 % area; HPLC [% area] ([5]; after 1 month): 98.3 % area; HPLC [% area] ([5]; after 1 week): 99.4 % area; HPLC [% area] ([5]; after 3 months): 99.1 % area; HPLC [% area] ([5]; after 8 months): 98.1 % area

Question: For `C[C@H](O)[C@H](O)[C@H]1CNc2nc(N)[nH]c(=O)c2N1.Cl.Cl` [Form E, (6R)-L-erythro-tetrahydrobiopterin dihydrochloride], which hygroscopicity [6] is on record?
Answer: The hygroscopicity was “non-hygroscopic”.

Question: With `C[C@H](O)[C@H](O)[C@H]1CNc2nc(N)[nH]c(=O)c2N1.Cl.Cl` [Hydrate form C, (6R)-L-erythro-tetrahydrobiopterin dihydrochloride] as the molecule, how does the hygroscopicity ([6]; hydrate form C) read?
Answer: Its hygroscopicity is “slightly hygroscopic”.

Question: With `C[C@H](O)[C@H](O)[C@H]1CNc2nc(N)[nH]c(=O)c2N1.Cl.Cl` [Polymorph A, (6R)-L-erythro-tetrahydrobiopterin dihydrochloride] as the molecule, how does the hygroscopicity [6] read?
Answer: The hygroscopicity was “slightly hygroscopic”.

Question: And the “water adsorbed (content)” value [6]?
Answer: The value was “about 3 percent by weight”.

Question: And the “phase equilibration test of suspensions: form after filtration and air drying” value ([6]; tetrahydrofuran or tertiary-butyl methyl ether, five days and 18 hours respectively, under nitrogen, room temperature)?
Answer: The value was “unchanged polymorph form A”.

Question: With `C[C@H](O)[C@H](O)[C@H]1CNc2nc(N)[nH]c(=O)c2N1.Cl.Cl` [Polymorph B, (6R)-L-erythro-tetrahydrobiopterin dihydrochloride] as the molecule, how does the hygroscopicity [6] read?
Answer: The hygroscopicity was “slightly hygroscopic”.

Question: For `C[C@H](O)[C@H](O)[C@H]1CNc2nc(N)[nH]c(=O)c2N1.Cl.Cl` [Polymorph F, (6R)-L-erythro-tetrahydrobiopterin dihydrochloride], which hygroscopicity [6] is on record?
Answer: The hygroscopicity was “slightly hygroscopic”.

Question: What about the “water adsorbed (content)” value [6] of the same molecule?
Answer: Its value is “about 3 percent by weight”.

Question: For `C[C@H](O)[C@H](O)[C@H]1CNc2nc(N)[nH]c(=O)c2N1.Cl.Cl` [Polymorph K, (6R)-L-erythro-tetrahydrobiopterin dihydrochloride], which hygroscopicity [6] is on record?
Answer: The hygroscopicity was “slightly hygroscopic”.

Question: What about the “water adsorbed (content)” value [6] of the same molecule?
Answer: The value was “about 2.0 percent by weight”.

Question: For `C[C@H](O)[C@H](O)[C@H]1CNc2nc(N)[nH]c(=O)c2N1.Cl.Cl` [hydrate D, (6R)-L-erythro-tetrahydrobiopterin dihydrochloride], which hygroscopicity ([6]; hydrate form D) is on record?
Answer: The hygroscopicity was “slightly hygroscopic”.

Question: For `C[C@H](O)[C@H](O)[C@H]1CNc2nc(N)[nH]c(=O)c2N1.Cl.Cl` [polymorph J, (6R)-L-erythro-tetrahydrobiopterin dihydrochloride], which hygroscopicity [6] is on record?
Answer: Its hygroscopicity is “slightly hygroscopic”.
